# Data as given in patent US20080194485A1, “Detection and Use of Prolylcarboxypeptidase” (YALE UNIVERSITY, priority 2004, published 2008).
# Residues, ends and D or L forms follow the SMILES beside them. *: point of attachment. Cbz = O=C(OCc1ccccc1)*
# Legend:
# wild type mice = test: IP administration of α-MSH and MTII, food intake in wild type mice; assay type: in vivo, mouse; settings: 200 nmol ip
# Experimental: Wild type and PRCP KO mice were used in this study. Animals were single caged and injected with saline at the beginning of the dark phase for 3 days. For each mouse, food intake was measured at 4, 12 and 24 hours after the injection. After 3 days, animals were divided in 6 groups: 1) wild type mice receiving 200 nmol MTII in saline; 2) wild type mice receiving 200 nmol α-MSH in saline; 3) wild type mice receiving saline; 4) PRCP KO mice receiving 200 nmol of MTII in saline; 5) PRCP KO mice receiving 200 nmol α-MSH; 6) PRCP KO mice receiving saline.
# [1] = target: T1, rPRCP51 (recombinant PRCP) (Homo sapiens, UniProt P42785); test: Substrate inhibition assay: rPRCP51-induced prekallikrein (PK) activation; assay type: biochemical; settings: at 1 mM peptide
# T1 construct: Human PRCP cDNA, lacking the first 391 base pairs of PRCP (Prcpnt391-1845); BiP secretion signal (from vector pMT/BiP/V5-His C) (N); His tag (from vector pMT/BiP/V5-His C) (C); made in house; host or cells: Schneider 2 (Drosophila S2) cells
# T1 sequence (P42785 46-496): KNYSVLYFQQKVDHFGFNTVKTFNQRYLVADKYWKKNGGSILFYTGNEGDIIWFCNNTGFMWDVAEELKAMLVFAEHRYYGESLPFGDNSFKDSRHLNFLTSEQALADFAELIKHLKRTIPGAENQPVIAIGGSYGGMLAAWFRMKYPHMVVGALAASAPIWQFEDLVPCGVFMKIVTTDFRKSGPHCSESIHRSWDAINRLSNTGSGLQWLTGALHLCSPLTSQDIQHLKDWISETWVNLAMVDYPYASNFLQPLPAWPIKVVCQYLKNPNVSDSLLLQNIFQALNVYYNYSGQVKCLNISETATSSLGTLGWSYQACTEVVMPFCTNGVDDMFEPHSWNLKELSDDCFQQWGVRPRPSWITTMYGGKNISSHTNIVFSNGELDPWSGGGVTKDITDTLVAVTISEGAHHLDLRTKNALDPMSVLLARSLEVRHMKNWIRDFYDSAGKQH
# Experimental: Panel A: Increasing concentration of α-MSH, MSH1-12, or AgII (0.001-1 mM) were incubated with 8 nM of recombinant PRCP51 at 37° C. in microtiter plate cuvette wells with preabsorbed HK and containing 20 nM PK. The liberation of paranitroanilide (pNA) from the S2302 by the formed plasma kallikrein in the presence of the peptide was measured at 405 nm and the results are expressed as residual formed plasma kallikrein activity. The data represent the mean±SEM of three independent measurements.
# pMT/BiP/V5-His C was employed as the basal plasmid in vector construction. […]
# Samples containing 8 nM rPRCP51 in […] total volume were prepared in the absence or presence of increasing concentration of peptide α-MSH, MSH1-12 or AgII in HEPES carbonate buffer (137 mM NaCl, 3 mM KCl, 12 mM NaHCO3, 14.7 mM HEPES, 5.5 mM dextrose and 0.1% gelatin, pH 7.1 containing 10 mM CaCl2, and 1 mM MgCl2) in microtiter plate cuvette wells with previously absorbed HK at […] and with 20 nM PK at 37° C. The ability of purified rPRCP51 to activate PK bound to HK on plastic microtiter plates was determined in the absence or presence of increasing concentrations (0.001-1 mM) of the peptide (McCarthy et al., 2003; Shariat-Madar et al., 2002). […] The rate of hydrolysis was recorded at different concentrations of peptide and expressed as percent kallikrein activity remaining. […]
# POMC-GFP neurons = test: Whole cell patch clamp electrophysiology of POMC-GFP neurons in hypothalamic slices; assay type: cell-based, mouse; settings: bath application, current clamp
# Experimental: Coronal hypothalamic brain slices (˜300 μm) were prepared with a Vibratome from POMC-GFP transgenic mice. Slices were maintained at room temperature in artificial cerebrospinal fluid saturated with 95% O2 and 5% CO2. Slices were equilibrated in the recording chamber for 1 hr at 35° C. in ACSF saturated with 95% O2 and 5% CO2 prior to recordings. ACSF contains (mM): NaCl, 124; KCl, 3; CaCl2, 2; MgCl2, 2; NaH2PO4, 1.23; NaHCO3, 26; glucose, 10; pH 7.4 with NaOH. An upright fluorescence/infrared microscope with long working distance objectives (Olympus BX51WI) and fluorescence filter sets for GFP (Chroma Technology Corp) was used. Fluorescent POMC-GFP neurons were selected and a patch pipette (4-6 mega Ohm resistance) was advanced onto the surface of the neuron by a micromanipulator (Sutter 225). The pipette solution contains (in mM) K gluconate, 128; HEPES, 10; EGTA, 1; KCl, 10; MgCl2, 1; CaCl2, 0.3; (Mg)-ATP, 5; (Na)GTP, 0.3, PH.7.4. Whole cell patch clamp experiments were performed with a Multiclamp 700A amplifier (Axon Instruments, Inc). Whole cell current clamp was used to monitor the effect of α-MSH on membrane potential of recorded neurons held at resting membrane potential. […] Eletrophysiological data were analyzed with Axograph 4.9 (Axon Instruments), plotted with Igor Pro software (WaveMetrics, Lake Oswego, Oreg., USA) and presented as the mean±SEM. […]
# fasted rats = test: ICV injection of α-MSH and α-MSH1-12, food intake in fasted rats; assay type: in vivo, rat; settings: 2.5 μg ICV, 12 hour-fasted rats
# Experimental: Eighteen male rats (200-250 gr) were used in this study. Animals with a third ventricle cannulation were purchased from Taconic Farms Inc. Rats were single caged and divided in 3 groups: animals injected with saline, animals injected with 2.5 μg of […]-MSH and animals injected with 2.5 μg of α-MSH1-12. All the rats were fasted overnight. The next morning, the animals were injected and a known amount of food was given and measured after 2 hours from re-feeding (Abbott et al., 2000).
# ob/ob mice [2] = test: IP injection of Z-PP, food intake in ob/ob mice; assay type: in vivo, mouse
# Experimental: For this study 10 ob/ob mice were used. Mice were injected at the beginning of the dark phase intraperitoneally with 2 doses of 5 mg Z-PP every 12 hours and food intake was measured every 12 hours after the last injection. Control mice were injected at the same times and with the same volume of vehicle. Note that for Z-PP doses lower than 5 mg were ineffective in reducing food intake.
# ob/ob mice [3] = test: IP injection of B-PP, food intake in ob/ob mice; assay type: in vivo, mouse; settings: 400 μg systemically (ip)
# Experimental: For this study 10 ob/ob mice were used. Mice were injected at the beginning of the dark phase intraperitoneally with 2 doses of […] of B-PP every 24 hours and food intake was measured before each injection and every 24 hours after the last administration. Control mice were injected at the same times and with same volume of vehicle.
# rats = test: ICV injection of B-PP, food intake in rats; assay type: in vivo, rat
# Experimental: Twelve male rats (200-250 gr) were used in this study. Animals with a third ventricle cannulation were purchased from Taconic Farms Inc. […] A known amount of food was given to the animals and weighted every 24 hours.
compound,measurement,setting,value
"Ac-Nle^4-c[Asp^5, D-Phe^7, Lys^10] α-MSH-(4-10)-NH2 [MTII]",food intake compared to 100% controls,wild type mice,35.5%
"Ac-STSMEHFRWGKP-COOH (Ac-STSMEHFRWGKP-OH) [α-MSH1-12, putative product of PRCP hydrolysis of α-MSH, lacks the C-terminal Val]",inhibition of rPRCP51 activity,[1],about 20%
same,hyperpolarization of POMC membrane potential,POMC-GFP neurons,undetectable
same,effect on food intake compared to saline controls,fasted rats,did not significantly affect food intake
same,food intake,fasted rats; 2 hours from re-feeding,8.89 ± 0.90 g
"O=C[C@@H]1CCCN1C(=O)[C@@H]1CCCN1C(=O)OCc1ccccc1 [Z-PP, N-benzyloxycarbonyl-prolyl-prolinal] (Cbz-Pro-Pro-aldehyde)",food intake compared to vehicle controls,"ob/ob mice [2]; 5 mg ip, after 24 hours from the last injection",no difference
same,effect on food intake,"ob/ob mice [2]; 5 mg ip, ob/ob mice","suppress food intake, but with lower efficacy than that of B-PP"
same,effect in reducing food intake,"ob/ob mice [2]; doses lower than 5 mg ip, ob/ob mice",ineffective
t-butyl carbamate (BOC)-prolyl prolinal [B-PP],effect on body weight gain,ob/ob mice [3],suppressed
same,effect on food intake,ob/ob mice [3],suppressed
same,"food intake, percent","rats; after 24 hours from the administration, controls 94.91%",36.7%
same,"food intake, percent","rats; after 48 hours from the administration, controls 97.67%",89.24%
